This passage reports Kd results from PMC9881157 (2023).

Holding throughout (experiment): RNA-DRaCALA titration
Experiment [1] relates to To-B (T. oceani ilvE, biotinylated) (RNA, riboswitch) AGGAAGUGUACCUUAGGGUUCCGGCCAUAAGGCGUCAGCGACCGAGCGGUACAAUCCGGGGAAACCCGGAACACCGUGAGCAUAAAAGGCUCCAGCGGCAAGUUCCUAAAAGAC
The following applies: 10 mM MgCl2; 20 mM Tris-HCl pH 7.5, 37 °C; 1 nM 32P-ppGpp.

The test system of experiment [2] is C21 (RNA, riboswitch) UAAGAGGCUAACUAGGGUUCCGAUGGUUUCAUGCUGGUCCAAGCGUUAGCAAACAUACUGAGGAAGGUAUGUUACACCGUUAGUACAAAAGGCUCGGCGGGAGGUCUUAUCCUUAAAAAAGCCACCGCCACCGCCACCGCCACCGCCACCGCCACCGCC
The following applies: 10 mM MgCl2; 20 mM Tris-HCl pH 7.5, 37 °C; 10 nM 32P-ligand.

In experiment [3] the test system is C16 (RNA, riboswitch) CAGAAGGGUACCUAGGGUUCCGUCCAUUUGAUUCAAGGGAGUCUGGACCAAGCGGUAUCGGCACCGGGAUAUGGUGUACACCGUGGGGAUAAAAGCCUCCAGCGGCAGGUUCUGAUGCAAAAAAAGCCACCGCCACCGCCACCGCCACCGCCACCGCCACCGCC
The following applies: 10 mM MgCl2; 20 mM Tris-HCl pH 7.5, 37 °C; 10 nM 32P-ligand.

As a reminder, the Kd is a measure of binding affinity in units of concentration. Low readings indicate higher affinity, high ones lower affinity.

For the compound `Nc1nc2c(ncn2[C@@H]2O[C@H](COP(=O)(O)OP(=O)(O)O)[C@@H](OP(=O)(O)OP(=O)(O)O)[C@H]2O)c(=O)[nH]1`, the dissociation constant Kd in experiment [1] was determined as 22.1 ± 1.6 nM; in experiment [2], 654 ± 121 nM; in experiment [3], 33 ± 3.7 nM.

In the case of `Nc1nc2c(ncn2[C@@H]2O[C@H](COP(=O)(O)OP(=O)(O)OP(=O)(O)O)[C@@H](OP(=O)(O)OP(=O)(O)O)[C@H]2O)c(=O)[nH]1`, the Kd in experiment [3] was 137 ± 17 nM.
